The values that follow come from patent US12643871B2, “Aryl formamide compound containing chiral sulfur oxide or salt thereof, preparation method, herbicidal composition and use thereof” (Qingdao Kingagroot Chemical Compound Co., Ltd., priority 2019, dated 2026).

What all share (experiment): Weeding effect in post-emergence stage
What all share (assay type): in vivo
Conditions in all cases: 250 g/ha; 2 leaf stage; 15 days after application; fresh weight control rate

One assay deals with Amaranthus retroflexus. In outline: (§1)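 Activity graded 0 (<5%) to 5 (>85%) from fresh-weight control rate, averaged over three repeats, 15 days after a spray-tower application. Plants at 2-leaf stage (2 weeks post-sowing) received 15–500 g/ha of compound formulated in acetone, Tween 80 and methyl oleate synergist (1.5 L/ha).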
A further assay concerns Digitaria sanguinalis. In outline: as §1
The next assay has as its system Echinochloa crusgali. In outline:
as §1

A further assay deals with Abutilon theophrasti. In outline: as §1

Take `Cc1c(C(=O)Nc2nnnn2C)ccc(S(C)(=O)=O)c1[S@+]([O-])CC1CC1` [Compound 518]: the “weeding effect in post-emergence stage, activity level (growth control rate), Amaranthus retroflexus” value (from here on “weeding effect … Amaranthus retroflexus”) with Amaranthus retroflexus is on record as 5 (Level 5: growth control rate is above 85%). Further, in the assay on Digitaria sanguinalis, the “weeding effect in post-emergence stage, activity level (growth control rate), Digitaria sanguinalis” value (from here on “weeding effect … Digitaria sanguinalis”) is 5 (Level 5: growth control rate is above 85%). The “weeding effect in post-emergence stage, activity level (growth control rate), Echinochloa crusgali” value (“weeding effect … Echinochloa crusgali” for short) in the assay with Echinochloa crusgali is 5 (Level 5: growth control rate is above 85%). Further, the “weeding effect in post-emergence stage, activity level (growth control rate), Abutilon theophrasti” value (“weeding effect … Abutilon theophrasti” below) with Abutilon theophrasti is 5 (Level 5: growth control rate is above 85%).

`Cc1c(C(=O)Nc2nnnn2C)ccc(S(C)(=O)=O)c1[S@+]([O-])CCF` [Compound 519]: the “weeding effect … Amaranthus retroflexus” value in the assay on Amaranthus retroflexus is on record as 5 (Level 5: growth control rate is above 85%). The “weeding effect … Digitaria sanguinalis” value in the assay with Digitaria sanguinalis was 5 (Level 5: growth control rate is above 85%). In the assay with Echinochloa crusgali, the “weeding effect … Echinochloa crusgali” value is 5 (Level 5: growth control rate is above 85%). Further, the “weeding effect … Abutilon theophrasti” value in the assay on Abutilon theophrasti was 5 (Level 5: growth control rate is above 85%).

`Cc1c(C(=O)Nc2nnnn2C)ccc(S(C)(=O)=O)c1[S@+]([O-])CC(F)(F)F` [Compound 520]: the “weeding effect … Amaranthus retroflexus” value in the assay on Amaranthus retroflexus is listed as 5 (Level 5: growth control rate is above 85%). Also, the “weeding effect … Digitaria sanguinalis” value in the assay with Digitaria sanguinalis is recorded as 5 (Level 5: growth control rate is above 85%). The “weeding effect … Echinochloa crusgali” value in the assay on Echinochloa crusgali is reported as 5 (Level 5: growth control rate is above 85%). Moreover, in the assay with Abutilon theophrasti, the “weeding effect … Abutilon theophrasti” value is reported as 5 (Level 5: growth control rate is above 85%).

Take `Cc1c(C(=O)Nc2nnnn2C)ccc(S(C)(=O)=O)c1[S@+]([O-])CC(C)F` (stereo partly drawn) [Compound 521]: in the assay on Amaranthus retroflexus, the “weeding effect … Amaranthus retroflexus” value is reported as 5 (Level 5: growth control rate is above 85%). In addition, the “weeding effect … Digitaria sanguinalis” value in the assay with Digitaria sanguinalis is reported as 5 (Level 5: growth control rate is above 85%). Further, the “weeding effect … Echinochloa crusgali” value in the assay with Echinochloa crusgali is given as 5 (Level 5: growth control rate is above 85%). In addition, the “weeding effect … Abutilon theophrasti” value in the assay with Abutilon theophrasti was 5 (Level 5: growth control rate is above 85%).

Regarding `Cc1c(C(=O)Nc2nnnn2C)ccc(S(C)(=O)=O)c1[S@+]([O-])CC(F)F` [Compound 522], in the assay with Amaranthus retroflexus, the “weeding effect … Amaranthus retroflexus” value was 5 (Level 5: growth control rate is above 85%). The “weeding effect … Digitaria sanguinalis” value with Digitaria sanguinalis is recorded as 5 (Level 5: growth control rate is above 85%). Besides, in the assay with Echinochloa crusgali, the “weeding effect … Echinochloa crusgali” value was 5 (Level 5: growth control rate is above 85%). Also, in the assay with Abutilon theophrasti, the “weeding effect … Abutilon theophrasti” value is reported as 5 (Level 5: growth control rate is above 85%).

Consider `Cc1c(C(=O)Nc2nnnn2C)ccc(S(C)(=O)=O)c1[S@+]([O-])CCCF` [Compound 523], for which, in the assay with Amaranthus retroflexus, the “weeding effect … Amaranthus retroflexus” value is listed as 5 (Level 5: growth control rate is above 85%). Moreover, in the assay with Digitaria sanguinalis, the “weeding effect … Digitaria sanguinalis” value is reported as 5 (Level 5: growth control rate is above 85%). For the same molecule, the “weeding effect … Echinochloa crusgali” value in the assay on Echinochloa crusgali is 5 (Level 5: growth control rate is above 85%). Moreover, the “weeding effect … Abutilon theophrasti” value in the assay on Abutilon theophrasti is reported as 5 (Level 5: growth control rate is above 85%).

For the molecule `Cc1c(C(=O)Nc2nnnn2C)ccc(S(C)(=O)=O)c1[S@+]([O-])CCC(F)(F)F` [Compound 524], the “weeding effect … Amaranthus retroflexus” value in the assay with Amaranthus retroflexus was 5 (Level 5: growth control rate is above 85%). Moreover, the “weeding effect … Digitaria sanguinalis” value in the assay with Digitaria sanguinalis is reported as 5 (Level 5: growth control rate is above 85%). The “weeding effect … Echinochloa crusgali” value in the assay with Echinochloa crusgali is given as 5 (Level 5: growth control rate is above 85%). Further, in the assay on Abutilon theophrasti, the “weeding effect … Abutilon theophrasti” value was 5 (Level 5: growth control rate is above 85%).

As for `Cc1c(C(=O)Nc2nnnn2C)ccc(S(C)(=O)=O)c1[S@+]([O-])CCCl` [Compound 525], the “weeding effect … Amaranthus retroflexus” value in the assay with Amaranthus retroflexus is recorded as 5 (Level 5: growth control rate is above 85%). Also, the “weeding effect … Digitaria sanguinalis” value with Digitaria sanguinalis is given as 5 (Level 5: growth control rate is above 85%). For the same molecule, the “weeding effect … Echinochloa crusgali” value in the assay on Echinochloa crusgali is reported as 5 (Level 5: growth control rate is above 85%). For the same molecule, in the assay with Abutilon theophrasti, the “weeding effect … Abutilon theophrasti” value is 5 (Level 5: growth control rate is above 85%).

For `Cc1c(C(=O)Nc2nnnn2C)ccc(S(C)(=O)=O)c1[S@+]([O-])CCCCl` [Compound 526], the “weeding effect … Amaranthus retroflexus” value with Amaranthus retroflexus was 5 (Level 5: growth control rate is above 85%). The “weeding effect … Digitaria sanguinalis” value in the assay with Digitaria sanguinalis was 5 (Level 5: growth control rate is above 85%). Besides, in the assay with Echinochloa crusgali, the “weeding effect … Echinochloa crusgali” value was 5 (Level 5: growth control rate is above 85%). The “weeding effect … Abutilon theophrasti” value in the assay on Abutilon theophrasti is recorded as 5 (Level 5: growth control rate is above 85%).

For the molecule `Cc1nnc(NC(=O)c2ccc(Cl)c([S@@+](C)[O-])c2Cl)o1` [Compound 621], the “weeding effect … Amaranthus retroflexus” value in the assay with Amaranthus retroflexus is 5 (Level 5: growth control rate is above 85%). For the same molecule, the “weeding effect … Digitaria sanguinalis” value in the assay with Digitaria sanguinalis is 5 (Level 5: growth control rate is above 85%). Besides, the “weeding effect … Echinochloa crusgali” value in the assay with Echinochloa crusgali is on record as 5 (Level 5: growth control rate is above 85%).

On to `CC[S@@+]([O-])c1c(S(C)(=O)=O)ccc(C(=O)Nc2nnnn2CCOC)c1C` [Compound 622], for which the “weeding effect … Amaranthus retroflexus” value in the assay with Amaranthus retroflexus is reported as 5 (Level 5: growth control rate is above 85%). Besides, the “weeding effect … Digitaria sanguinalis” value with Digitaria sanguinalis is 5 (Level 5: growth control rate is above 85%). Further, the “weeding effect … Echinochloa crusgali” value in the assay on Echinochloa crusgali is given as 5 (Level 5: growth control rate is above 85%).

As for `Cc1nnc(NC(=O)c2ccc(F)c([S@@+](C)[O-])c2F)o1` [Compound 623], the “weeding effect … Amaranthus retroflexus” value with Amaranthus retroflexus is given as 5 (Level 5: growth control rate is above 85%). The “weeding effect … Digitaria sanguinalis” value in the assay with Digitaria sanguinalis was 5 (Level 5: growth control rate is above 85%). Besides, the “weeding effect … Echinochloa crusgali” value in the assay on Echinochloa crusgali was 5 (Level 5: growth control rate is above 85%).

As for `C#CCC[S@@+]([O-])c1c(S(C)(=O)=O)ccc(C(=O)Nc2nnc(C)o2)c1C` [Compound 624], in the assay with Amaranthus retroflexus, the “weeding effect … Amaranthus retroflexus” value is on record as 5 (Level 5: growth control rate is above 85%). In addition, the “weeding effect … Digitaria sanguinalis” value in the assay with Digitaria sanguinalis is recorded as 5 (Level 5: growth control rate is above 85%). Also, in the assay on Echinochloa crusgali, the “weeding effect … Echinochloa crusgali” value is given as 5 (Level 5: growth control rate is above 85%).

On to `Cc1nnc(NC(=O)c2ccc(S(C)(=O)=O)c([S@+]([O-])CCS(C)(=O)=O)c2C)o1` [Compound 625], for which the “weeding effect … Amaranthus retroflexus” value in the assay on Amaranthus retroflexus is recorded as 5 (Level 5: growth control rate is above 85%). Also, in the assay with Digitaria sanguinalis, the “weeding effect … Digitaria sanguinalis” value was 5 (Level 5: growth control rate is above 85%). The “weeding effect … Echinochloa crusgali” value in the assay on Echinochloa crusgali is given as 5 (Level 5: growth control rate is above 85%).

For the molecule `Cc1c(C(=O)Nc2nnnn2C)ccc(S(C)(=O)=O)c1[S+]([O-])CC1CCC1` (stereo not drawn) [Compound 626], in the assay on Amaranthus retroflexus, the “weeding effect … Amaranthus retroflexus” value is recorded as 5 (Level 5: growth control rate is above 85%). Also, the “weeding effect … Digitaria sanguinalis” value in the assay on Digitaria sanguinalis is given as 5 (Level 5: growth control rate is above 85%). Besides, the “weeding effect … Echinochloa crusgali” value in the assay on Echinochloa crusgali was 5 (Level 5: growth control rate is above 85%).

As to `Cc1nnc(NC(=O)c2ccc(S(C)(=O)=O)c([S@+]([O-])CCC(F)=C(F)F)c2C)o1` [Compound 627], in the assay with Amaranthus retroflexus, the “weeding effect … Amaranthus retroflexus” value is 5 (Level 5: growth control rate is above 85%). Besides, the “weeding effect … Digitaria sanguinalis” value with Digitaria sanguinalis is 5 (Level 5: growth control rate is above 85%). The “weeding effect … Echinochloa crusgali” value with Echinochloa crusgali is 5 (Level 5: growth control rate is above 85%).

Consider `Cc1nnc(NC(=O)c2ccc(S(C)(=O)=O)c([S@+]([O-])CCCO)c2C)o1` [Compound 628], for which the “weeding effect … Amaranthus retroflexus” value with Amaranthus retroflexus is 5 (Level 5: growth control rate is above 85%). For the same molecule, in the assay on Digitaria sanguinalis, the “weeding effect … Digitaria sanguinalis” value is 5 (Level 5: growth control rate is above 85%). Moreover, the “weeding effect … Echinochloa crusgali” value with Echinochloa crusgali is listed as 5 (Level 5: growth control rate is above 85%).

As to `CCn1nnnc1NC(=O)c1ccc(S(C)(=O)=O)c([S@+]([O-])CC)c1C` [Compound 629], the “weeding effect … Amaranthus retroflexus” value in the assay with Amaranthus retroflexus was 5 (Level 5: growth control rate is above 85%). Also, in the assay with Digitaria sanguinalis, the “weeding effect … Digitaria sanguinalis” value is given as 5 (Level 5: growth control rate is above 85%). Moreover, the “weeding effect … Echinochloa crusgali” value in the assay with Echinochloa crusgali is given as 5 (Level 5: growth control rate is above 85%).

`CCC[S@@+]([O-])c1c(C(F)F)ccc(C(=O)Nc2nnnn2C)c1SC` [Compound 867]: in the assay with Amaranthus retroflexus, the “weeding effect … Amaranthus retroflexus” value was 5 (Level 5: growth control rate is above 85%). Also, in the assay on Digitaria sanguinalis, the “weeding effect … Digitaria sanguinalis” value is listed as 5 (Level 5: growth control rate is above 85%). The “weeding effect … Echinochloa crusgali” value with Echinochloa crusgali was 5 (Level 5: growth control rate is above 85%).
